The source of these data is patent US20240299385A1 (ReWind Therapeutics NV, priority 2021, published 2024).

Broadly, the IC50 is the midpoint of a concentration-inhibition curve.

The assay concerns the target T1, human GPR17 receptor (Homo sapiens, UniProt Q13304).
T1 construct: host or cells: HEK-293
In words: Calcium mobilization functional assay (Fluo-8, FLIPR TETRA) in HEK-293 hGPR17 (Gα-q assay). As to conditions: antagonism of MDL29,951 (~EC80) induced Ca2+ signal; cell line (HEK-293 hGPR17 or HEK-293 Suchi5 hGPR17) not given. The class given is cell-based. The procedure: HEK-293 cells stably expressing the human GPR17 receptor (HEK-293 hGPR17) developed by Axxam (Bresso, Milan, Italy) were cultured at 37° C. in a humidified atmosphere of 5% CO2. Cells were grown in EMEM supplemented with FBS (10%), Penicillin/Streptomycin (1%), Ultraglutamine I (2 mM), puromycin (0.6 μg/mL), G418 (0.4 mg/mL), zeocin (50 μg/mL). This cell line was used to test the compound antagonistic activity by monitoring the Gα-q based signaling. Signaling via Gα-q leads to mobilization of calcium from internal stores. Elevated intracellular calcium levels can then be measured with calcium-sensitive fluorescent dyes (e.g., Fluo 8-No Wash Dye).
GPR17 activation leads to both an increase in intracellular calcium (via Gα-q) and a decrease in cAMP levels (via Gα-i), implicating that both of these pathways play a role for in vivo function.
Experiments were performed using the below cell lines, as described in part 1: • HEK-293 hGPR17 (used to study the compounds acting via Gα-q pathway) • HEK-293 Suchi5 hGPR17 (used to study the compounds acting via Gα-i pathway, where the Gα-i signaling is switched to a Gα-q signaling thanks to the Gα-i/q chimera Suchi5)
GPR17 activation was able to induce an endoplasmic reticulum calcium (Ca^2+) store release in cytosol which could be measured using the fluorescent Ca^2+ sensitive dye Fluo-8 No Wash Dye as readout.
HEK-293 hGPR17 and HEK-293 Suchi5 hGPR17 were seeded at a density of 15,000 cells/well into poly-D-lysine coated black 384-well plates with clear bottom in complete medium. Cells were incubated overnight at 37° C. in a humidified atmosphere of 5% CO2. Twenty-four hours after seeding, the culture medium was carefully removed manually and the cells were loaded for 60 minutes at room temperature with the Ca^2+ sensitive Fluo-8 No Wash Dye, according to manufacturer's instructions. Cells were then assayed using a fluorometric imaging plate reader (FLIPR^TETRA). Fluorescence (excitation: 470-495 nm; emission: 515-575 nm) was recorded during the experiment. […] After twenty minutes, a second injection of MDL29,951 at ˜EC80 (500 nM for HEK-293 hGPR17 and 2 nM for HEK-293 Suchi5 hGPR17) in assay buffer was performed at the FLIPR^TETRA and the signal of the emitted fluorescence was recorded for additional 2 minutes. All the compound injections and incubations were performed in duplicate. For data quality and data analysis the Screener® 16.0.6 (Genedata) software was used.
(In general: Calcium assays in cells follow changes in intracellular calcium, usually with a dye or a luminescent sensor.)

T1 sequence (Q13304 whole entry): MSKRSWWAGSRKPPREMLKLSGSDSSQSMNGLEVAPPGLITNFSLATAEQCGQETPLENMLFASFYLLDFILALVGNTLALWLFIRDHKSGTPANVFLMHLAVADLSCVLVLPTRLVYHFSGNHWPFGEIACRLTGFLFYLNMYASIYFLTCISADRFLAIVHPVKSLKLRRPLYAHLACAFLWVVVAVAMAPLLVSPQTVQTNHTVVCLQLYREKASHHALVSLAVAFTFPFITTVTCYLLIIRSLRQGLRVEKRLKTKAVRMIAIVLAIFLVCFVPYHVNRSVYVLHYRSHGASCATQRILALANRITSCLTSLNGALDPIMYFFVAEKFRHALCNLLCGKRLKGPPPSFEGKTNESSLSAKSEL

For the compound `CC(c1ccccn1)c1cc(S(=O)(=O)Nc2ccc(C#N)cc2F)c[nH]1` (centres unmarked), the IC50 was 5000 to 50000 nM.

For the compound `Cc1[nH]c(-c2ccccc2)cc1S(=O)(=O)Nc1ccc(C#N)cc1F` [Cpd 001, N-(4-cyano-2-fluorophenyl)-2-methyl-5-phenyl-1H-pyrrole-3-sulfonamide], the IC50 lay in the range of 500 to 5000 nM.

Consider `N#Cc1ccc(NS(=O)(=O)c2c[nH]c(-c3ccccc3)c2)c(F)c1` [Cpd 002, N-(4-cyano-2-fluorophenyl)-5-phenyl-1H-pyrrole-3-sulfonamide], for which the IC50 was < 500 nM.

For the compound `O=S(=O)(Nc1cc(F)c(Br)cc1F)c1c[nH]c(-c2ccccc2)c1` [Cpd 003, N-(4-bromo-2,5-difluoro-phenyl)-5-phenyl-1H-pyrrole-3-sulfonamide], the IC50 was < 500 nM.

Turning to `N#Cc1ccc(NS(=O)(=O)c2c[nH]c(-c3cccc(F)c3)c2)c(F)c1` [Cpd 004, N-(4-cyano-2-fluoro-phenyl)-5-(3-fluorophenyl)-1H-pyrrole-3-sulfonamide], the IC50 was < 500 nM.

As to `Cc1cccc(-c2cc(S(=O)(=O)Nc3ccc(C#N)cc3F)c[nH]2)c1` [Cpd 005, N-(4-cyano-2-fluoro-phenyl)-5-(m-tolyl)-1H-pyrrole-3-sulfonamide], the IC50 is < 500 nM.

Regarding `N#Cc1ccc(NS(=O)(=O)c2c[nH]c(-c3cccc(Cl)c3)c2)c(F)c1` [Cpd 006, 5-(3-chlorophenyl)-N-(4-cyano-2-fluoro-phenyl)-1H-pyrrole-3-sulfonamide], the 50% inhibitory concentration (IC50) is < 500 nM.

Regarding `N#Cc1ccc(NS(=O)(=O)c2c[nH]c(-c3ccc(F)cc3)c2)c(F)c1` [Cpd 007, N-(4-cyano-2-fluoro-phenyl)-5-(4-fluorophenyl)-1H-pyrrole-3-sulfonamide], the IC50 was < 500 nM.

In the case of `Cc1ccc(-c2cc(S(=O)(=O)Nc3ccc(C#N)cc3F)c[nH]2)cc1` [Cpd 008, N-(4-cyano-2-fluoro-phenyl)-5-(p-tolyl)-1H-pyrrole-3-sulfonamide], the IC50 fell in the range of 500 to 5000 nM.

`N#Cc1ccc(NS(=O)(=O)c2c[nH]cc2-c2ccccc2)c(F)c1` [Cpd 009, N-(4-cyano-2-fluorophenyl)-4-phenyl-1H-pyrrole-3-sulfonamide]: the IC50 was 500 to 5000 nM.

On to `COc1cccc(-c2cc(S(=O)(=O)Nc3ccc(C#N)cc3F)c[nH]2)c1` [Cpd 010, N-(4-cyano-2-fluoro-phenyl)-5-(3-methoxyphenyl)-1H-pyrrole-3-sulfonamide], for which the concentration for half-maximal inhibition (IC50) is < 500 nM.

On to `N#Cc1ccc(NS(=O)(=O)c2c[nH]c(-c3ccc(Cl)cc3)c2)c(F)c1` [Cpd 011, 5-(4-chlorophenyl)-N-(4-cyano-2-fluoro-phenyl)-1H-pyrrole-3-sulfonamide], for which the IC50 lay within 500 to 5000 nM.

As to `COc1ccc(-c2cc(S(=O)(=O)Nc3ccc(C#N)cc3F)c[nH]2)cc1` [Cpd 012, N-(4-cyano-2-fluoro-phenyl)-5-(4-methoxyphenyl)-1H-pyrrole-3-sulfonamide], the IC50 was in the range of 5000 to 50000 nM.

Take `N#Cc1ccc(NS(=O)(=O)c2c[nH]c(C(=O)c3ccccc3)c2)c(F)c1` [Cpd 013, 5-benzoyl-N-(4-cyano-2-fluoro-phenyl)-1H-pyrrole-3-sulfonamide]: the IC50 lay in the range of 5000 to 50000 nM.

For the compound `N#Cc1ccc(NS(=O)(=O)c2c[nH]c(-c3ccccc3F)c2)c(F)c1` [Cpd 014, N-(4-cyano-2-fluorophenyl)-5-(2-fluorophenyl)-1H-pyrrole-3-sulfonamide], the IC50 is < 500 nM.

For `Cc1ccccc1-c1cc(S(=O)(=O)Nc2ccc(C#N)cc2F)c[nH]1` [Cpd 015, N-(4-cyano-2-fluoro-phenyl)-5-(o-tolyl)-1H-pyrrole-3-sulfonamide], the IC50 was < 500 nM.

Take `N#Cc1ccc(NS(=O)(=O)c2c[nH]c(-c3ccccc3Cl)c2)c(F)c1` [Cpd 016, 5-(2-chlorophenyl)-N-(4-cyano-2-fluoro-phenyl)-1H-pyrrole-3-sulfonamide]: the IC50 was < 500 nM.

For `COc1ccccc1-c1cc(S(=O)(=O)Nc2ccc(C#N)cc2F)c[nH]1` [Cpd 017, N-(4-cyano-2-fluoro-phenyl)-5-(2-methoxyphenyl)-1H-pyrrole-3-sulfonamide], the IC50 was < 500 nM.

As to `N#Cc1ccc(NS(=O)(=O)c2c[nH]c(C3CCCC3)c2)c(F)c1` [Cpd 018, N-(4-cyano-2-fluorophenyl)-5-cyclopentyl-1H-pyrrole-3-sulfonamide], the IC50 fell in the range of 500 to 5000 nM.

Turning to `N#Cc1ccc(NS(=O)(=O)c2c[nH]c(Cc3ccccc3)c2)c(F)c1` [Cpd 019, 5-benzyl-N-(4-cyano-2-fluoro-phenyl)-1H-pyrrole-3-sulfonamide], the IC50 lay within 500 to 5000 nM.

Consider `N#Cc1ccc(NS(=O)(=O)c2cc(-c3ccccc3)[nH]c2F)c(F)c1` [Cpd 020, N-(4-cyano-2-fluorophenyl)-2-fluoro-5-phenyl-1H-pyrrole-3-sulfonamide], for which the IC50 lay within 500 to 5000 nM.

With `N#Cc1ccc(NS(=O)(=O)c2c[nH]c(-c3cccc(C(F)(F)F)c3)c2)c(F)c1` [Cpd 021, N-(4-cyano-2-fluoro-phenyl)-5-[3-(trifluoromethyl)phenyl]-1H-pyrrole-3-sulfonamide], the IC50 fell in the range of 500 to 5000 nM.

For the compound `CC(C)c1cccc(-c2cc(S(=O)(=O)Nc3ccc(C#N)cc3F)c[nH]2)c1` [Cpd 022, N-(4-cyano-2-fluoro-phenyl)-5-(3-isopropylphenyl)-1H-pyrrole-3-sulfonamide], the IC50 fell in the range of 5000 to 50000 nM.

With `N#Cc1ccc(NS(=O)(=O)c2c[nH]c(-c3ccccc3)c2F)c(F)c1` [Cpd 023, N-(4-cyano-2-fluorophenyl)-4-fluoro-5-phenyl-1H-pyrrole-3-sulfonamide], the IC50 was < 500 nM.

Regarding `N#Cc1ccc(NS(=O)(=O)c2c[nH]c(-c3ccncc3)c2)c(F)c1` [Cpd 024, N-(4-cyano-2-fluoro-phenyl)-5-(4-pyridyl)-1H-pyrrole-3-sulfonamide], the IC50 is 5000 to 50000 nM.

For the compound `N#Cc1cccc(-c2cc(S(=O)(=O)Nc3ccc(C#N)cc3F)c[nH]2)c1` [Cpd 025, N-(4-cyano-2-fluoro-phenyl)-5-(3-cyanophenyl)-1H-pyrrole-3-sulfonamide], the IC50 was < 500 nM.

As for `N#Cc1ccc(NS(=O)(=O)c2c[nH]c(-c3ccccn3)c2)c(F)c1` [Cpd 026, N-(4-cyano-2-fluoro-phenyl)-5-(2-pyridyl)-1H-pyrrole-3-sulfonamide], the IC50 is < 500 nM.

On to `N#Cc1ccc(NS(=O)(=O)c2c[nH]c(-c3cccnc3)c2)c(F)c1` [Cpd 027, N-(4-cyano-2-fluoro-phenyl)-5-(3-pyridyl)-1H-pyrrole-3-sulfonamide], for which the IC50 was 500 to 5000 nM.

Take `N#Cc1cc(F)c(NS(=O)(=O)c2c[nH]c(-c3ccccc3)c2)cc1F` [Cpd 028, N-(4-cyano-2,5-difluoro-phenyl)-5-phenyl-1H-pyrrole-3-sulfonamide]: the IC50 was < 500 nM.

On to `Cc1cc(C#N)ccc1NS(=O)(=O)c1c[nH]c(-c2ccccc2)c1` [Cpd 029, N-(4-cyano-2-methyl-phenyl)-5-phenyl-1H-pyrrole-3-sulfonamide], for which the IC50 fell in the range of 5000 to 50000 nM.

For `COc1cc(C#N)ccc1NS(=O)(=O)c1c[nH]c(-c2ccccc2)c1` [Cpd 030, N-(4-cyano-2-methoxy-phenyl)-5-phenyl-1H-pyrrole-3-sulfonamide], the IC50 was 500 to 5000 nM.

As for `Cc1cc(NS(=O)(=O)c2c[nH]c(-c3ccccc3)c2)ccc1C#N` [Cpd 031, N-(4-cyano-3-methyl-phenyl)-5-phenyl-1H-pyrrole-3-sulfonamide], the IC50 was in the range of 500 to 5000 nM.
